PubChem BioAssay (NCI)
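Assay format: 96-well plates, 48-hour exposure. At the GI50, growth is halved. TGI: concentration producing complete growth inhibition.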

Tests used:
Test in all cases: growth of human tumour cells (NCI), 48 h; in the data active = GI50 below about 0.43 µM; inactive = the rest
[1] = system: KM12 colon
[2] = system: BT-549 breast
[3] = system: CAKI-1 renal
[4] = system: MDA-MB-231 breast
[5] = system: OVCAR-5 ovarian
[6] = system: HCC-2998 colon
[7] = system: SW-620 colon
[8] = system: A549 NSCLC
[9] = system: SNB-75 CNS
[10] = system: SNB-19 CNS
[11] = system: RPMI-8226 leukemia
[12] = system: DU-145 prostate
[13] = system: SN12C renal
[14] = system: A498 renal
[15] = system: HOP-92 NSCLC
[16] = system: HOP-62 NSCLC
[17] = system: U251 CNS
[18] = system: NCI/ADR-RES ovarian
[19] = system: MCF7 breast
[20] = system: IGROV1 ovarian
[21] = system: MDA-N
[22] = system: RXF 393 renal
[23] = system: M14 melanoma
[24] = system: TK-10 renal
[25] = system: K-562 leukemia
[26] = system: HCT-15 colon
[27] = system: T-47D breast
[28] = system: LOX IMVI melanoma
[29] = system: UACC-62 melanoma
[30] = system: NCI-H460 lung
[31] = system: OVCAR-3 ovarian
[32] = system: SK-MEL-5 melanoma
[33] = system: MALME-3M melanoma
[34] = system: NCI-H522 lung
[35] = system: NCI-H23 lung
[36] = system: ACHN renal
[37] = system: UACC-257 melanoma
[38] = system: EKVX NSCLC
[39] = system: MOLT-4 leukemia
[40] = system: CCRF-CEM leukemia
[41] = system: HL-60(TB) leukemia
[42] = system: SK-OV-3 ovarian
[43] = system: HCT-116 colon
[44] = system: PC-3 prostate
[45] = system: MDA-MB-435
[46] = system: OVCAR-4 ovarian
[47] = system: SF-295 CNS
[48] = system: OVCAR-8 ovarian
[49] = system: 786-0 renal
[50] = system: HS 578T breast
[51] = system: SK-MEL-28 melanoma
[52] = system: COLO 205 colon
[53] = system: SF-268 CNS
[54] = system: SK-MEL-2 melanoma
[55] = system: UO-31 renal
[56] = system: HT29 colon
[57] = system: NCI-H226 lung
[58] = system: SR leukemia
[59] = system: SF-539 CNS

C[n+]1ccc(-c2c3nc(c(-c4ccc5c(ccc[n+]5C)c4)c4ccc([nH]4)c(-c4cc[n+](C)cc4)c4nc(c(-c5ccc6c(ccc[n+]6C)c5)c5ccc2[nH]5)C=C4)C=C3)cc1
17.2 µM: TGI [41]
48.7 µM: TGI [27]
> 50 µM: TGI [1] | TGI [2] | TGI [3] | TGI [4] | TGI [5] | TGI [6] | TGI [7] | TGI [8] | TGI [10] | TGI [11] | TGI [12] | TGI [13] | TGI [14] | TGI [15] | TGI [16] | TGI [17] | TGI [18] | TGI [19] | TGI [20] | TGI [21] | TGI [22] | TGI [23] | TGI [24] | TGI [25] | TGI [26] | TGI [28] | TGI [29] | TGI [30] | TGI [32] | TGI [33] | TGI [34] | TGI [35] | TGI [36] | TGI [38] | TGI [39] | TGI [40] | TGI [42] | TGI [43] | TGI [44] | TGI [46] | TGI [47] | TGI [48] | TGI [49] | TGI [50] | TGI [51] | TGI [52] | TGI [53] | TGI [54] | TGI [55] | TGI [56]
26.1 µM: TGI [9]
48.5 µM: TGI [37]
inactive: GI50 [1] 23.1 µM | GI50 [2] 35.9 µM | GI50 [3] > 50 µM | GI50 [4] 16.3 µM | GI50 [5] > 50 µM | GI50 [6] 49.7 µM | GI50 [7] > 50 µM | GI50 [8] 38.1 µM | GI50 [9] 5.09 µM | GI50 [10] 24.2 µM | GI50 [11] > 50 µM | GI50 [12] 30.7 µM | GI50 [13] > 50 µM | GI50 [14] 27.2 µM | GI50 [15] 25.1 µM | GI50 [16] 13.3 µM | GI50 [17] 28.8 µM | GI50 [18] > 50 µM | GI50 [19] 42.5 µM | GI50 [20] > 50 µM | GI50 [21] 30 µM | GI50 [22] 13.9 µM | GI50 [23] > 50 µM | GI50 [24] 10.1 µM | GI50 [25] 31.4 µM | GI50 [26] > 50 µM | GI50 [27] 12.4 µM | GI50 [28] > 50 µM | GI50 [29] > 50 µM | GI50 [30] 16.9 µM | GI50 [31] 7.91 µM | GI50 [32] 17.6 µM | GI50 [33] > 50 µM | GI50 [34] > 50 µM | GI50 [35] > 50 µM | GI50 [36] 27.9 µM | GI50 [37] 12.9 µM | GI50 [38] > 50 µM | GI50 [39] > 50 µM | GI50 [40] > 50 µM | GI50 [41] 9.19 µM | GI50 [42] > 50 µM | GI50 [43] > 50 µM | GI50 [44] 49.5 µM | GI50 [45] 12.9 µM | GI50 [46] 27.5 µM | GI50 [47] 40.5 µM | GI50 [48] > 50 µM | GI50 [49] > 50 µM | GI50 [50] 42.4 µM | GI50 [51] 28.5 µM | GI50 [52] 23.1 µM | GI50 [53] > 50 µM | GI50 [54] 22.4 µM | GI50 [55] 19.9 µM | GI50 [56] > 50 µM
36.9 µM: TGI [45]
40.5 µM: TGI [31]

CP(C)(=S)P(C)(C)=S
> 100 µM: TGI [2] | TGI [3] | TGI [4] | TGI [5] | TGI [6] | TGI [7] | TGI [8] | TGI [9] | TGI [10] | TGI [11] | TGI [12] | TGI [13] | TGI [16] | TGI [17] | TGI [18] | TGI [19] | TGI [20] | TGI [21] | TGI [22] | TGI [23] | TGI [57] | TGI [24] | TGI [25] | TGI [26] | TGI [27] | TGI [28] | TGI [29] | TGI [30] | TGI [32] | TGI [33] | TGI [34] | TGI [35] | TGI [36] | TGI [37] | TGI [38] | TGI [39] | TGI [40] | TGI [58] | TGI [41] | TGI [42] | TGI [43] | TGI [44] | TGI [46] | TGI [47] | TGI [48] | TGI [59] | TGI [49] | TGI [50] | TGI [51] | TGI [52] | TGI [53] | TGI [54] | TGI [55] | TGI [56]

COc1ccc(CC2C3=C(CCCC3)CCN2C)cc1 (stereo not drawn)
> 100 µM: TGI [1] | TGI [3] | TGI [4] | TGI [5] | TGI [6] | TGI [7] | TGI [8] | TGI [9] | TGI [10] | TGI [11] | TGI [12] | TGI [13] | TGI [14] | TGI [16] | TGI [17] | TGI [18] | TGI [19] | TGI [20] | TGI [21] | TGI [22] | TGI [23] | TGI [57] | TGI [24] | TGI [25] | TGI [26] | TGI [27] | TGI [28] | TGI [29] | TGI [30] | TGI [31] | TGI [32] | TGI [33] | TGI [35] | TGI [36] | TGI [37] | TGI [38] | TGI [39] | TGI [40] | TGI [41] | TGI [42] | TGI [43] | TGI [44] | TGI [45] | TGI [46] | TGI [47] | TGI [48] | TGI [59] | TGI [49] | TGI [50] | TGI [51] | TGI [52] | TGI [53] | TGI [54] | TGI [55] | TGI [56]

N/N=C(\C(=O)Nc1ccc([N+](=O)[O-])cc1)C(C1=Nc2cc([N+](=O)[O-])ccc2NC1)[N+](=O)[O-] (stereo not drawn)
> 100 µM: TGI [1] | TGI [2] | TGI [3] | TGI [4] | TGI [5] | TGI [6] | TGI [7] | TGI [8] | TGI [9] | TGI [10] | TGI [11] | TGI [13] | TGI [14] | TGI [15] | TGI [16] | TGI [17] | TGI [18] | TGI [19] | TGI [20] | TGI [21] | TGI [22] | TGI [23] | TGI [57] | TGI [24] | TGI [25] | TGI [26] | TGI [27] | TGI [28] | TGI [29] | TGI [30] | TGI [31] | TGI [32] | TGI [33] | TGI [34] | TGI [35] | TGI [36] | TGI [37] | TGI [38] | TGI [39] | TGI [40] | TGI [58] | TGI [41] | TGI [42] | TGI [43] | TGI [44] | TGI [45] | TGI [46] | TGI [47] | TGI [48] | TGI [59] | TGI [49] | TGI [50] | TGI [51] | TGI [53] | TGI [54] | TGI [55] | TGI [56]

CC(NC(=O)C(N)CC(=O)O)NC(=O)N1CCCC1 (stereo not drawn)
> 100 µM: TGI [1] | TGI [2] | TGI [3] | TGI [4] | TGI [5] | TGI [6] | TGI [7] | TGI [8] | TGI [9] | TGI [10] | TGI [11] | TGI [12] | TGI [13] | TGI [14] | TGI [15] | TGI [16] | TGI [17] | TGI [18] | TGI [19] | TGI [20] | TGI [21] | TGI [22] | TGI [23] | TGI [57] | TGI [24] | TGI [25] | TGI [26] | TGI [27] | TGI [28] | TGI [29] | TGI [30] | TGI [31] | TGI [32] | TGI [33] | TGI [34] | TGI [35] | TGI [36] | TGI [37] | TGI [38] | TGI [39] | TGI [40] | TGI [42] | TGI [43] | TGI [44] | TGI [45] | TGI [46] | TGI [47] | TGI [48] | TGI [59] | TGI [49] | TGI [50] | TGI [51] | TGI [52] | TGI [53] | TGI [54] | TGI [55] | TGI [56]

CC(C)=CCC[C@H](C)[C@H]1CC[C@@H](C)c2cc(O)c(C)cc21
32.5 µM: TGI [19]
37.2 µM: TGI [56]
30.6 µM: TGI [36]
33.3 µM: TGI [57] | TGI [49]
31.6 µM: TGI [10]
37.5 µM: TGI [1]
31.2 µM: TGI [53]
37.9 µM: TGI [12]
35.4 µM: TGI [42]
31.3 µM: TGI [44]
41.7 µM: TGI [41]
38.6 µM: TGI [9]
32.4 µM: TGI [34] | TGI [54]
31.5 µM: TGI [46]
51 µM: TGI [39]
33.4 µM: TGI [33] | TGI [38]
36.7 µM: TGI [18]
30.7 µM: TGI [5] | TGI [14]
32 µM: TGI [28]
33 µM: TGI [35]
37.8 µM: TGI [50]
68 µM: TGI [40]
29.8 µM: TGI [13]
33.7 µM: TGI [6] | TGI [30]
56.6 µM: TGI [7]
28.2 µM: TGI [55]
46.8 µM: TGI [25]
35.3 µM: TGI [31]
35.1 µM: TGI [26]
31.9 µM: TGI [3]
42.2 µM: TGI [22]
31.7 µM: TGI [37]
32.9 µM: TGI [43]
56.2 µM: TGI [11]
31.4 µM: TGI [20]
34.3 µM: TGI [52]
34 µM: TGI [4]
35.6 µM: TGI [16] | TGI [48]
33.8 µM: TGI [59]
32.2 µM: TGI [15] | TGI [47]
32.1 µM: TGI [21]
32.7 µM: TGI [2]
30.4 µM: TGI [32]
32.8 µM: TGI [24]
32.6 µM: TGI [8]
36.8 µM: TGI [27] | TGI [51]
38.8 µM: TGI [45]
31.1 µM: TGI [17]
33.9 µM: TGI [23]
27.9 µM: TGI [29]
